pKd: −log10 of the molar value.
Biological target: T1, PlzD
T1 construct: His-tagged PlzD (aot11_00285, strain ATCC27562), expressed in E. coli BL21(DE3)
Assay: micro-equilibrium dialysis with UV absorbance at […] nm, purified protein
Format: binding, Vibrio vulnificus

`Nc1nc2c(ncn2[C@@H]2O[C@@H]3COP(=O)(O)O[C@H]4[C@@H](O)[C@H](n5cnc6c(=O)[nH]c(N)nc65)O[C@@H]4COP(=O)(O)O[C@H]3[C@H]2O)c(=O)[nH]1` [c-di-GMP] gave a pKd of 5.41.
